The values below come from patent US20020148001A1, “Transgenic mice containing CRFR2 corticotropin-releasing factor receptor gene disruptions” (priority 2000, published 2002).

No end group written: not given here.

For data set [1], the system named is wild-type control mice (+/+). Description: Metrazol dose test (seizure susceptibility), wild-type control mice. As to conditions: genotype +/+. The format is in vivo, mouse. The protocol:
(§1) A metrazol administration test can be used to screen animals for varying susceptibilities to seizures or similar events. For example, a 5 mg/ml solution of metrazol can be infused through the tail vein of a mouse at a rate of, e.g., approximately 0.375 ml/min. The infusion will cause all mice to experience seizures, followed by death. Those mice that enter the seizure stage the soonest are believed to be more prone to seizures.
(§2) Phenotypic Analysis. The transgenic mice were analyzed for phenotypic changes.

Data set [2] has as its system homozygous mutant mice (CRFR2 −/−). Description: Metrazol dose test (seizure susceptibility), CRFR2 homozygous mutant mice. As to conditions: for Dose to Death / Dose to Extension (tonic extension) / Dose to T/C (tonic/clonic seizure) / Dose to Twitch: genotype −/−. It is filed as in vivo, mouse. The method, then: as §1, §2
Data set [3] has as its system CRHR2 −/− mice. Conditions: intravenously injected, mutant mice; cited from earlier work.
Data set [4] has as its system CRHR2 −/− mice. Conditions: CRHR2 −/− mice following urocortin administration; recovered more rapidly than wildtype; cited from earlier work.
In data set [5] the test system is CRHR2 −/− mice. As to conditions: systemic urocortin, CRHR2 −/− mice in contrast to wildtype; cited from earlier work.
Data set [6] addresses T1, CRF2 receptor (Homo sapiens, UniProt Q13324).
T1 sequence (Q13324 1-411): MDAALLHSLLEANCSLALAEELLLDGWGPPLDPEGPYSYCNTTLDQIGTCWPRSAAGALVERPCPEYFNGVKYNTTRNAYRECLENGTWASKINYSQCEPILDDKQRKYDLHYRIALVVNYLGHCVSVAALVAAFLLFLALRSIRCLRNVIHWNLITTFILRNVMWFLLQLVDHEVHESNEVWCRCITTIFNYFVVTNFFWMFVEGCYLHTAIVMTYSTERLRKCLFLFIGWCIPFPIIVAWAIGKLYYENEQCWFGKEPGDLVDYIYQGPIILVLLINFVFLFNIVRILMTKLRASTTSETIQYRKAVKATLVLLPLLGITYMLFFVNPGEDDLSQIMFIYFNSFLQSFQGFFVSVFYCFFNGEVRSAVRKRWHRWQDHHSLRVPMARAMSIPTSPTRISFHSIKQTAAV
As to conditions: transfected cells expressing the CRF2 receptor; cited from earlier work.

With `C1CCc2nnnn2CC1` [metrazol], the “Dose to Death” value turned out to be 136.65 mg/kg body weight in data set [1] (F2N0), 124.96 mg/kg body weight in data set [1] (F2N1), 127.39 mg/kg body weight in data set [2] (F2N0) and 148.84 mg/kg body weight in data set [2] (F2N1). The “Dose to Extension (tonic extension)” value is listed as 113.63 mg/kg body weight in data set [1] (F2N0), 95.46 mg/kg body weight in data set [1] (F2N1), 98.20 mg/kg body weight in data set [2] (F2N0) and 119.75 mg/kg body weight in data set [2] (F2N1). Moreover, the “Dose to T/C (tonic/clonic seizure)” value in data set [1] (F2N0) is 43.46 mg/kg body weight; in data set [1] (F2N1), 34.36 mg/kg body weight; in data set [2] (F2N0), 44.38 mg/kg body weight; in data set [2] (F2N1), 37.93 mg/kg body weight. Besides, the “Dose to Twitch” value in data set [1] (F2N0, tail vein infusion) came to 36.93 mg/kg body weight; in data set [1] (F2N1) it was 23.71 mg/kg body weight; in data set [2] (F2N0), 34.90 mg/kg body weight; in data set [2] (F2N1), 24.18 mg/kg body weight. In addition, the “metrazol response threshold, dose to show stereotypical seizure responses” value in data set [2] (homozygotes compared to wild-types, particularly tonic extension and death) is listed as “higher dose of metrazol than wild-types”.
Regarding “urocortin (DDPPLSIDLTFHLLRTLLELARTQSQRERAEQNRIIFDSV; ends and bridges not checked; UniProt P81615 81-120, looked up)”, in data set [3], the “effect on mean arterial pressure” value is reported as “no effect”. In data set [4], the feeding entry is reported as “initially suppressed”. Further, the “enhanced cardiac performance or reduced blood pressure” value in data set [5] is listed as “failed to show the enhanced cardiac performance or reduced blood pressure”.
For corticotropin-releasing hormone [CRH], the “intracellular cAMP” value in data set [6] is recorded as “increase”.
